Assays:
[1] = system: 4T1-mCherry murine mammary adenocarcinoma in the tibia; format: in vivo, Balb/c female mice; settings: 4T1-mCherry tumors in the tibia
[2] = blood samples on day 11; 15 mg/kg PTX or equivalent
Method: Samples were counted no longer than five minutes after blood was drawn from mice. Ten μl of blood samples were mixed with 90 μl of track solution (1% acetic acid in DDW), and cells were counted by a Z1 Coulter® Particle Counter (Beckman Coulter™). Data is expressed as mean±s.e.m.

[3] = system: 4T1-mCherry tumors in the tibia; test: Microvessel density (CD34 staining), 4T1-mCherry model; format: in vivo, Balb/c female mice; settings: compared to saline-treated control group
Method: Immunohistochemistry of tumors in the tibia was performed using samples fixed with 4% paraformaldehyde, following decalcification in EDTA and paraffin embedding by the standard procedure. Paraffin sections of 4 μm were de-paraffinized, rehydrated, and stained by hematoxylin and eosin (H&E). For CD34 staining, slides were deparaffinized and pre-treated with 10 mM citrate buffer, pH=6.0, for 20 minutes in a steam pressure cooker (Decloaking Chamber, BioCare Medical, Walnut Creek, Calif.).
All further steps were performed at room temperature in a hydrated chamber. Slides were covered with Peroxidase Block (Merck, Germany) for 10 minutes to quench endogenous peroxidase activity, followed by incubation with 2% of horse serum in 50 mM Tris-HCl, pH 7.4, for 30 minutes to block non-specific binding sites. Primary rat anti-murine CD34 antibody (MEC 14.7 1:50 dilution; Abcam, Cambridge, Mass.) was applied in 1% rabbit serum albumin in Tris-HCl, pH 7.4 at 4° overnight. Slides were washed in 50 mM TrisHCl, pH 7.4 and rabbit anti-rat antibody (1:750 dilution; Vector Laboratories, Calif., USA) was applied for 30 minutes. Following further washing, immunoperoxidase staining was developed using HistoMark TrueBlue peroxidase system (KPL, USA) per the manufacturer instructions and counterstained with safranin.

[4] = system: PC3 human prostate adenocarcinoma cells; test: PC3 cell viability / proliferation assay (MTT); format: cell-based; settings: PC-3, 72 hours incubation
Method: PC3 cells were plated onto 96 well plate (5×10^3 cells/well) in DMEM supplemented with 5% FBS and incubated for 24 h (37° C.; 5% CO2). […] Following incubation, PC3 cells were counted by MTT.

[5] = Pharmacokinetic studies in mice; format: in vivo, female Balb/C mice
Method: The mice were randomly divided in three groups of 10 animals. […] To 50 μL of plasma, 350 μL of CH3CN was added for protein precipitation and the resulting mixture was centrifuged at 20,000 g for 5 minutes. A 300 μL aliquot of the supernatant was collected and freeze-dried. The residue was dissolved in 50 μL of CH3OH and analyzed by RP-HPLC under the condition reported hereinabove.

[6] = system: circulating endothelial cells (CEC) and circulating endothelial progenitor (CEP); settings: day 11 of treatment
[7] = female, mouse, plasma, iv, i.v. 10 mg/Kg PTX equiv., Balb/C mice

With CC(=O)O[C@H]1C(=O)[C@@]2(C)[C@H]([C@H](OC(=O)c3ccccc3)[C@]3(O)C[C@H](OC(=O)[C@H](O)[C@@H](NC(=O)c4ccccc4)c4ccccc4)C(C)=C1C3(C)C)[C@]1(OC(C)=O)CO[C@@H]1C[C@@H]2O [PTX, Paclitaxel] the “H&E histology of the tibia” value [1] was “tumor filled the bone marrow space and destroyed both trabecular and cortical bone”, the WBC counts [2] was “significant decrease” and the “reduction in micro-vessel density (MVD)” value [3] was “about 50%”. It also gave an IC50 [4] of 25 to 60 nM, a Vd [5, 7] of 0.161 ± 0.0021 L and a clearance [5, 7] of 7.4 ± 1.5 mL/min. For the same compound, the half-life ([5]; female, mouse, plasma, iv, i.v. 10 mg/Kg PTX equiv., Balb/C mice, read-out: T1/2β (elimination half-life)) was 15.1 min, the T1/2α ([5]; i.v. 10 mg/Kg PTX equiv., Balb/C mice) was 1.3 ± 0.3 and the “time at which PTX was not detectable” value ([5]; serum PTX by RP-HPLC, i.v. 10 mg/Kg) was 60 min. For the same compound, the “viable CEP levels” value [6] was “increase”.
